Experimental data from patent publication US8637679B2, “Process for the isolation of organic compounds useful for the treatment of cancer” (Council of Scientific and Industrial Research, priority 2011, dated 2014).
“And” between values parts separate entries of the source, which are not always exact repeats. Equal entries are not always repeated. “Also recorded” adds a separate entry of the source. Where two headings read alike, the source gives them in different places.

How the values were obtained:
Hsp90α = Hsp90α (Homo sapiens, UniProt P07900); assay: γ-ATP sepharose binding assay, Hsp90α; settings: mahanine at 50 and 100 μM
Experimental: (§1) 5 μg of purified Hsp90α and Hsp90β were pre-incubated separately on ice with 200 μL incubation buffer (10 mM Tris-Hcl, 50 mM KCl, 5 mM MgCl2, 2 mM DTT, 20 mM Na2MoO4, 0.01% NP40, pH 7.5) containing mahanine or 17-AAG and incubated for 30 mins on ice. After the incubation, 25 μL pre-equilibrated γ-phosphate ATP sepharose added and again incubated at 37° C. with frequent agitation.
(§2) Sepharose subsequently washed and analyzed by SDS-PAGE. Then the blot was probed with anti Hsp90 antibody and developed by ECL.

Hsp90β = Hsp90β (Homo sapiens, UniProt P08238); assay: γ-ATP sepharose binding assay, Hsp90β; settings: mahanine at 50 and 100 μM
Sequence of Hsp90β (P08238 whole entry): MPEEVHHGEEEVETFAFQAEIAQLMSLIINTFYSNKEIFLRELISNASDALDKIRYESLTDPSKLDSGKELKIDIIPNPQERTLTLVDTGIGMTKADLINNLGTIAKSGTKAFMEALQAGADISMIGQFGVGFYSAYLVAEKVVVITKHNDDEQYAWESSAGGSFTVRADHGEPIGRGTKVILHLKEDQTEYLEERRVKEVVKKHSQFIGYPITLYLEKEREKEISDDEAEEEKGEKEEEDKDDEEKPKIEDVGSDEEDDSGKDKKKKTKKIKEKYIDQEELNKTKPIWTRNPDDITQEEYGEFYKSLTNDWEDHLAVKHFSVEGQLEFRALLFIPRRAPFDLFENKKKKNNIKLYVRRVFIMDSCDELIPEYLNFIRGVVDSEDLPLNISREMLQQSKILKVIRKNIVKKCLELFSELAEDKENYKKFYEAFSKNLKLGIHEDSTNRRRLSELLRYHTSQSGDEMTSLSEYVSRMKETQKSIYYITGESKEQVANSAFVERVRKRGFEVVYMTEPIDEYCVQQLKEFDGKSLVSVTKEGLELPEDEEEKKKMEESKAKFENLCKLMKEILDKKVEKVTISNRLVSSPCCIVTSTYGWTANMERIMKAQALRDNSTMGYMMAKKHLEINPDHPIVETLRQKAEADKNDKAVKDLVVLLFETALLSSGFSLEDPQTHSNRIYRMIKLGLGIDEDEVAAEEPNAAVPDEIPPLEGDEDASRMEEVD
Experimental: as §1, §2

HeLa [1] = assay: 7-AAD flow cytometric apoptosis, HeLa; type: cell-based, human
Experimental: (§5) U87MG, LN229, HeLa, SiHa and ME180 (1×10^6 cells) cells were cultured in 6-well plates in presence or absence of Mahanine (25 μM) for 24 hrs. Cells were washed in PBS, incubated with 7-Aminoactinomycin D (7-AAD) at 4° C. for 20 min and processed. Data acquisition was done on a FACSCalibur flow cytometer (BD) at excitation wavelength at 488 nm and emission wavelength at 647 nm and analyzed with CellQuestPro software.

Molt-3 = assay: MTT cell viability assay, Molt-3; type: cell-based, human; settings: Molt-3, 48 hrs
Experimental: (§3) Human cervical cancer cell lines (HeLa, ME-180 and SiHa), brain tumor cell lines (U87MG, U373MG, U87MG EGFRvIII, T98G, A172 and LN229), lymphoid leukemia (MOLT-3, MOLT-4, REH and CEMC-7), myloid leukemia (K562), pancreatic cancer (MIAPaCa-2, AsPC-1, Panc-1 and Panc 10.05), lung cancer (A549) and colon cancer (HCT116 and SW480) cell lines from American Type Culture Collection, Manassas, Va., USA were grown in IMDM or RPMI (cell specific) Medium supplemented with 10% fetal bovine serum and 1% antibiotic-antimycotic. Cells were cultured in 37° C. in an atmosphere of 5% CO2.
(§4) Viability of cancer cell lines after treatment as at the indicated times was determined by MTT assay. Briefly, 10,000 cells were plated in triplicate in 96 well plates and incubated for 24 and 48 hours in complete media in presence of varying dose of mahanine (0-50 μM). 100 ug MTT was added in each well. Incubate the plate for 1-4 hours at 37° C. and humidified 5% CO2 atmosphere. Absorbance was recorded at 550 nm with 96 well plate readers.

Molt-4 = assay: MTT cell viability assay, Molt-4; type: cell-based, human; settings: Molt-4, 48 hrs
Experimental: as §3, §4

CEM C7 = assay: MTT cell viability assay, CEM C7; type: cell-based, human; settings: CEM C7, 48 hrs
Experimental: as §3, §4

REH = assay: MTT cell viability assay, REH; type: cell-based, human; settings: 48 hrs
Experimental: as §3, §4

K562 = assay: MTT cell viability assay, K562; type: cell-based, human; settings: K562, 48 hrs
Experimental: as §3, §4

U373MG = assay: MTT cell viability assay, U373MG; type: cell-based, human; settings: 48 hrs
Experimental: as §3, §4

U87MG = assay: MTT cell viability assay, U87MG; type: cell-based, human; settings: 48 hrs
Experimental: as §3, §4

LN229 = assay: MTT cell viability assay, LN229; type: cell-based, human; settings: LN229, 48 hrs
Experimental: as §3, §4

T98G = assay: MTT cell viability assay, T98G; type: cell-based, human; settings: 48 hrs
Experimental: as §3, §4

A172 = assay: MTT cell viability assay, A172; type: cell-based, human; settings: A172, 48 hrs
Experimental: as §3, §4

MIAPaCa-2 = assay: MTT cell viability assay, MIAPaCa-2; type: cell-based, human; settings: MIAPaCa-2, 48 hrs
Experimental: as §3, §4

AsPC1 = assay: MTT cell viability assay, AsPC1; type: cell-based, human; settings: AsPC1, 48 hrs
Experimental: as §3, §4

Panc1 = assay: MTT cell viability assay, Panc1; type: cell-based, human; settings: Panc1, 48 hrs
Experimental: as §3, §4

Panc10.05 = assay: MTT cell viability assay, Panc10.05; type: cell-based, human; settings: Panc10.05, 48 hrs
Experimental: as §3, §4

A549 = assay: MTT cell viability assay, A549; type: cell-based, human; settings: A549, 48 hrs
Experimental: as §3, §4

NCIH23 = assay: MTT cell viability assay, NCIH23; type: cell-based, human; settings: NCIH23, 48 hrs
Experimental: as §4

HCT116 = assay: MTT cell viability assay, HCT116; type: cell-based, human; settings: HCT116, 48 hrs
Experimental: as §3, §4

SW480 = assay: MTT cell viability assay, SW480; type: cell-based, human; settings: SW480, 48 hrs
Experimental: as §3, §4

HeLa [2] = assay: MTT cell viability assay, HeLa; type: cell-based, human; settings: 48 hrs
Experimental: as §3, §4

Vero = assay: MTT cell viability assay, Vero normal cells; type: cell-based, African monkey; settings: Vero normal cell line, 48 hrs
[3] = test system: glioma cells (U87MG, U373MG, LN229, A172 and T98G); assay: MTT assay, panel of glioma cell lines; type: cell-based, human; settings: range over U87MG, 48 hr, read-out: IC50 values against different glioma cell lines
Experimental: as §3, §4

cancer cell lines = assay: MTT assay, pooled cancer cell lines of several cancer types; type: cell-based, human; settings: 48 hr
Experimental: as §3, §4

[4] = In vivo bioavailability after oral feeding; parameters: species or system Balb/c mice; settings: mouse, in vivo, po
Experimental: EtOAc extract of Murraya koenigii was orally feeded to normal healthy Balb/c (100 mg/kg body weight) and blood was collected from retro orbital plexus after 30 min interval by glass capillary. Control blood was collected from the mice before the […] of extract. The Institutional Animal Ethical Committee had approved the study. Blood serum was isolated and the serum protein was separated by centrifugation in ice-cold acetone. Supernatant was evaporated to dryness and residual part was dissolved in minimum volume of MeOH and injected into the HPLC column.

[5] = test system: glioma (T98G) and cervical (HeLa) cancer cells; assay: Comparative cytotoxicity of mahanine and analogs by MTT; type: cell-based, human; settings: MTT
Experimental: as §3, §4

ME180 = assay: 7-AAD flow cytometric apoptosis, ME180; type: cell-based, human; settings: ME180, paclitaxel 10 μM alone
Experimental: as §5

17-allylamino, 17-demethoxygeldanamycin [17AAG, reference compound]
effect on ATP binding to purified Hsp90 (Hsp90α): easily hindered the ATP binding
effect on ATP binding to purified Hsp90 (Hsp90β): easily hindered the ATP binding

N.N.[Cl][Pt][Cl] [Cisplatin, cisplatin]
apoptosis (7-AAD) (HeLa [1]; cisplatin 40 μM alone): ~7%

CC(C)=CCCC1(C)C=Cc2c(c(C)cc3c2[nH]c2ccccc23)O1 (stereo not shown) [Mahanimbine, mahanimbine]
IC50 (Molt-3): 22.6 ± 0.6 µM
IC50 (Molt-4): 28 ± 0.2 µM
IC50 (CEM C7): 27.4 ± 0.3 µM
IC50 (REH): 24.3 ± 0.7 µM
IC50 (K562): 25.1 ± 0.1 µM
IC50 (U373MG): 41.2 ± 0.25 µM
IC50 (U87MG): 42.6 ± 0.4 µM
IC50 (LN229): 46.3 ± 0.1 µM
IC50 (T98G): 43.6 ± 0.2 µM
IC50 (A172): 38.4 ± 0.8 µM
IC50 (MIAPaCa-2): 35.2 ± 0.1 µM
IC50 (AsPC1): 31.75 ± 0.2 µM
IC50 (Panc1): 32.8 ± 0.1 µM
IC50 (Panc10.05): 38.2 ± 0.1 µM
IC50 (A549): 37 ± 0.1 µM
IC50 (NCIH23): 31.8 ± 0.2 µM
IC50 (HCT116): 33.5 ± 0.3 µM
IC50 (SW480): 36.4 ± 0.5 µM
IC50 (HeLa [2]): 34.8 ± 0.1 µM
IC50 (HeLa [2]; listed as Mahanimbin): 36 µM
IC50 (Vero): > 100 µM
IC50 [3]: 38 to 47 µM
IC50 (cancer cell lines; range over glioma and cervical cancer cell lines, read-out: IC50, glioma and cervical cancer cells): 10 to 20 µM
IC50 (cancer cell lines; range over leukemia, glioma, cervical, pancreatic, colon and lung cancer lines, MTT, read-out: IC50, cell lines of different cancer types): 20 to 45 µM and 30 to 50 µM
secondary metabolites in blood (mass spectroscopy) [4]: no production of secondary metabolites
time to appearance in blood circulation after oral administration [4]: ≤ 30 min

CC(C)=CCCC1(C)C=Cc2c(c(C)cc3c4ccccc4n(C)c23)O1 (stereo not shown) [N-methylated mahanimbine]
cytotoxicity (activity in words) [5]: inactive; also recorded: more or less inactive

COc1ccc2c(c1)[nH]c1c3c(c(C)cc12)OC(C)(CCC=C(C)C)C=C3 (stereo not shown) [O-methylated mahanine]
cytotoxicity (activity in words) [5]: inactive; also recorded: more or less inactive

CC(=O)O[C@H]1C(=O)[C@@]2(C)[C@H]([C@H](OC(=O)c3ccccc3)[C@]3(O)C[C@H](OC(=O)[C@H](O)[C@@H](NC(=O)c4ccccc4)c4ccccc4)C(C)=C1C3(C)C)[C@]1(OC(C)=O)CO[C@@H]1C[C@@H]2O [Paclitaxel, paclitaxel, reference compound]
apoptosis (7-AAD) (HeLa [1]; paclitaxel 10 μM alone): 16.19%
apoptosis (7-AAD) (ME180): 18.21%

C20-C21 epoxy mahanine
IC50 (REH): 18.4 ± 1.1 µM
